In this test the test system is Cannabis plant. Nature of the test: Leaf ploidy by flow cytometry after colchicine treatment of haploid Cannabis plants. In kind it is in vivo. The following applies: for cells counted diploid / cells counted haploid / cells counted tetraploid: mixaploid (n+2n) state. From the text: In some exemplary embodiments, a colchicine concentration (in water) of 0.25% may be used in addition to 0.5%, 1% and 5%. An issue arises with Cannabis in that not all the cells or tissues of a colchicine treated plant will double their ploidy.
On the multi-cellular level, doubling the ploidy of plants requires colchicine treatment applied to the shoot apical meristem (SAM). The SAM is composed of three distinct cell layers: L1 (outermost layer), L2 (middle layer), and L3 (innermost layer). Within the SAM, stem cell division takes place along the peripheral zone where new leaves emerge (Heidstra, 2014). The L1 gives rise to the epidermis or the protective covering of the leaf and stem, L2 to the sub epidermal photosynthetic mesophyll tissue, and L3 to the vascular tissue including the xylem and phloem. L1 and L2 divide anticlinally or […] to each other and thus remain distinct layers (Meyerowitz, 1997). On occasion, a cell in the SAM can divide periclinally whereby the daughter cell invades and acquires the identity one layer out and brings its ploidy with it. This organizational dynamic creates a stable yet mutable developmental path. In fact, the discovery of the stability of different layers within a meristem was discovered by creating a chimera using colchicine on Datura. The researchers were able to follow the developmental lineage of the differently sized cells due to the different ploidy levels within the SAM (Satina, 1940).

[1] abbreviates: cultivar Cryptic Lineage Legacy, FIG. 4C.
Setting [2] is: cultivar Herbaceous Sting, FIG. 2C.
Where [3] appears, read: cultivar Operation Green Harvest Haze, FIG. 3C.
[4] abbreviates: cultivar Standing Liberty, FIG. 1C.

For `COc1cc2c(c(OC)c1OC)-c1ccc(OC)c(=O)cc1[C@@H](NC(C)=O)CC2` [Colchicine], under “colchicine treated haploid Cannabis plants”, the “ploidy doubling of treated haploid plants” value was “very rarely, if ever, achieve a fully diploid state”. The cells counted diploid entry by setting is: under setting [1], “approximately 20.65%”; under setting [2], “approximately 45.82%”; under setting [3], “approximately 22.8%”; under setting [4], “approximately 49%”. The cells counted haploid entry by setting is: under setting [1], “approximately 17.65%”; under setting [2], “approximately 12.15%”; under setting [3], “approximately 32.4%”; under setting [4], “approximately 12.48%”. Besides, the cells counted tetraploid result runs as follows: under setting [1], “approximately 2.63%”; under setting [2], “approximately 3.93%”; under setting [3], “approximately 3.1%”; under setting [4], “approximately 4.39%”.

For the origin of these results see patent US20250064007A1, “Self-Fertilization as Methods for Stabilizing Ploidy after Colchicine Treatment Model” (Rev Genomics, Inc., priority 2023, published 2025).
